Results from patent US10562839B2, “Medium chain fatty acid esters of β-hydroxybutyrate and butanediol and compositions and methods for using same” (The J. David Gladstone Institutes, priority 2016, dated 2020).

How the values were obtained:
[1] = Pilot feeding study, food supplemented with esters of β-hydroxybutyrate and butanediol; format: in vivo, C57BL/6 male mice; conditions: 10% w/w in chow
From the text: Different esters of β-hydroxybutyrate and butanediol were synthesized as described above and purified for testing in mice. The esters of β-hydroxybutyrate and butanediol that were supplemented into the diet of the mice in this study were as follows: 1) C8 diesters of butanediol (C8x2-BD); 2) C8 monoesters of β-hydroxybutyrate (C8-BHB); 3) C6 diesters of β-hydroxybutyrate (C6x2-BHB); 4) C6 monoesters of β-hydroxybutyrate (C6-BHB); and 5) C6 diesters of butanediol (C6x2-BD). Food compositions supplemented with 1,3-butanediol were also tested. Compounds were mixed at 10% w/w in ground normal chow (20% calories from protein) to match standard vivarium feed. The food was provided in a glass jar inside the animal cage. n=2 mice/condition, 18 mice total. All mice were 12 month-old C57BL/6 males. Mice were placed in individual cages to record food intake more precisely. Food was switched back to normal chow at 72 hrs (ground and in a glass jar).

[2] = Plasma BHB after intraperitoneal injection in APPJ20 mice; format: in vivo; conditions: approximately 70-80 minutes after i.p. injection; from a median of approximately 200 μM
Experimental: (§1) EEGs were recorded from APPJ20 mice before and after intraperitoneal injection of C6-BHB, or an equivalent volume of saline. Following completion of the first 50 min recording, the injection was performed. Mice were then allowed to recover for 20 minutes in their home cage, followed by the second 50 min EEG recording. Blood was drawn immediately following completion of the second EEG session in order to measure plasma BHB levels (as described in Example 4). The lower of the two previously tested doses from Example 4 was injected, 50 μL per 30 g body weight, which is approximately 1.5 g/kg and approximately 0.2 millimoles.
(§2) During the EEG recordings, mice were freely moving in a transparent cylinder approximately the size of a home cage. Methodology for recording and analysis of EEGs and video tracking for movement was described in Example 5. Methodology for blood draws and plasma BHB measurement was described in Example 4.

[3] = tested on: APPJ20 mice; experiment: EEG epileptiform spikes before and after intraperitoneal injection of C6-BHB; format: in vivo
Experimental: C6 and C8 esters of butanediol and C6 and C8 esters of β-hydroxybutyrate were synthesized as described above. The C6 ester of β-hydroxybutyrate was tested for efficacy in suppressing spikes in APPJ20 mice by intraperitoneal injection into 1-2 year-old APPJ20 mice including both male and female mice. The APPJ20 mice were described in Example 5.
as §1, §2
The study used a cross-over design where all mice were injected with both C6-BHB and normal saline on different days, with at least 48 hours between injections. Data analysis was limited to mice that completed all injections and EEG recordings.

[4] = Pilot feeding study, food supplemented with C6 monoester of β-hydroxybutyrate; format: in vivo, C57BL/6 male mice
Experimental: C6 monoester of β-hydroxybutyrate was synthesized as described above and purified for testing in mice. The C6 monoester of β-hydroxybutyrate was mixed into ground control food (10% calories from protein), the same control diet used in the above examples involving ketogenic and control diet. The food was placed in a glass jar inside the animal cage at the start of the nighttime feeding cycle, 19:00 h. Different concentrations of the C6 monoester of β-hydroxybutyrate (w/w) were mixed into the control diet to determine which concentration was sufficient to raise BHB levels in the mice. n=4 mice/condition (2 mice per cage). All mice were 12 month-old C57BL/6 males.

[5] = Plasma BHB levels after intraperitoneal injection of C6 and C8 esters; format: in vivo, wild-type C57BL/6 male mice; conditions: for blood BHB levels: intraperitoneal injection, 50 uL and 100 uL (approx. 1-3 g/kg), blood up to 6 hours after injection
Experimental: C6 and C8 esters of butanediol and C6 and C8 esters of β-hydroxybutyrate were synthesized as described above and purified for testing in wild-type C57BL/6Ncrl male mice obtained from Charles River Laboratories. Mice were 8 months old at the time of the experiment. The biological function of C6 and C8 esters of butanediol and β-hydroxybutyrate was tested by intraperitoneal injection at two doses each, 50 uL and 100 uL. Injection was performed approximately 9 am (mice are maintained on 7a-7p light-dark cycle) and mice had access to food and water at all times. The molar quantity injected varied from 0.13-0.41 millimoles depending on the compound and dose. The subject mice weighed approximately 30 grams, so the quantity of compound injected ranged approximately from 1 g/kg to 3 g/kg. For comparison, these amounts could theoretically supply about 1/20 of a mouse's daily caloric needs—equivalent in humans to around 100 calories. Blood was drawn by distal tail nick just prior to injection (baseline) and at 30 min, 1 hour, 2 hours, 4 hours, and 6 hours after injection. Approximately 40 uL of blood was collected into lithium-heparin microvettes (Sarstedt CB-300LH) and subsequently centrifuged 15 min at 1500×G at 4° C. to separate plasma. Plasma BHB levels were determined by a colorimetric enzymatic assay (Stanbio Laboratory 2440-058).

[6] = Feeding study, food supplemented with C6 diesters of β-hydroxybutyrate; format: in vivo, C57BL/6 male mice; conditions: 10% w/w in diet, eighth night
From the text: Based on the results of the above Pilot studies, the C6 diesters of β-hydroxybutyrate were selected for a longer study with a greater number of mice to see if it would remain ketogenic even after food intake normalized. C6 diesters of β-hydroxybutyrate were synthesized as described above and purified for testing in mice. The C6 diesters of β-hydroxybutyrate were mixed at 10% w/w into ground standard chow diet (20% calories from protein), which was re-formed into pellets. Re-pelleted food was used to minimize any variable effects from a change in diet texture to ground.
The pelleted food was consumed by the mice after being placed in a glass jar in the animal cage. Four mice per diet were tested, with the mice individually caged. All mice were 12 month-old C57BL/6 males. Daily weight and caloric intake was monitored and blood was drawn for glucose and β-hydroxybutyrate levels on the eighth night. […] By the 7th night, the weights of the mice stabilized and 24 hour caloric intake was similar between the control diet and the mice that consumed food supplemented with C6 esters of β-hydroxybutyrate.

CCCCCC(=O)OCC [C6, reference compound]
hypoglycaemias [1]: can be explained by fasting

CCCCCC(=O)O[C@H](C)CC(=O)OCC [C6-BHB]
plasma BHB levels, median [2]: approximately 600 μM
epileptiform spikes ([3]; after i.p. 50 μL per 30 g body weight, saline 1.25 spikes/min): 0.82 spikes/min
reduction of epileptiform spikes compared to saline injection ([3]; i.p. 50 μL per 30 g body weight (approx. 1.5 g/kg), 50 min EEG): approximately 35%
epileptiform spikes after injection ([3]; i.p. injection, 50 min EEG): reduces spikes compared to both pre-injection baselines and injection of saline
spike reduction compared to after saline, at the individual mouse level ([3]; i.p. injection, P<0.05): significant reductions for most mice
BHB level in the blood ([4]; 2.5% or 5% by weight in food): slight increase in BHB level in the blood
BHB level in the blood against the targeted threshold ([4]; 2.5% or 5% by weight in food): ≤ 500
β-hydroxybutyrate concentration in blood ([4]; 10% or 20% by weight in food, probably explained by fasting): greater increase in β-hydroxybutyrate concentration
hypoglycaemias [1]: likely a result of the compound
side effect observed ([5]; higher dose (100 uL), intraperitoneal): mild sedation
blood BHB levels [5]: increased BHB levels to that seen on a ketogenic diet (0.5-2 mM), or after an overnight fast (1-3 mM)

CCCCCCOC(=O)C[C@@H](C)OC(=O)CCCCC [C6x2-BHB]
plasma β-hydroxybutyrate against targeted threshold [6]: ≥ 500 µM
β-hydroxybutyrate plasma concentrations versus control diet ([6]; normal caloric intake): greater β-hydroxybutyrate plasma concentrations

CCCCCCCC(=O)O[C@H](C)CC(=O)OCC [C8-BHB]
hypoglycaemias [1]: can be explained by fasting
blood concentration of β-hydroxybutyrate ([1]; targeted 500 μM threshold): high BHB value
blood BHB levels [5]: increased BHB levels to that seen on a ketogenic diet (0.5-2 mM), or after an overnight fast (1-3 mM)
